These results are taken from patent publication US11878013B2, “Isoquinoline derivative, preparing method thereof, and pharmaceutical composition for preventing or treating autophagy related diseases containing the same as an active ingredient” (Korea Research Institute of Chemical Technology, priority 2021, dated 2024).

Data set [1] relates to zebrafish. The experiment in a line: Fatty liver inhibitory effect in tamoxifen-treated zebrafish juvenile fish (LipidGreen2 staining). Format: in vivo. The following applies: 5 μM tamoxifen alone, 22 hours (FIG. 8 top). The method, then: In order to evaluate the inhibitory efficacy of the novel isoquinoline derivative of the present invention on fatty liver, an experiment was performed as follows using LipidGreen2 staining reagent capable of staining lipid droplets.
Particularly, the zebrafish used in this Experimental Example were juvenile fish 5 days after fertilization. Healthy juvenile fish were placed in a 24-well plate (10/well), and 1 ml of egg water was added to each well of the plate. As a negative control that could not regulate fatty liver, DMSO diluted at 0.4% was exposed to juvenile fish, and tamoxifen (Sigma-Aldrich, T5648) diluted at 5 μM was exposed to juvenile fish to control […] fatty liver. In order to investigate the fatty liver inhibitory efficacy of the compound of Example 1 of the present invention, the compound (0.5 μM, 1 μM and 5 μM) was mixed with 5 μM tamoxifen and exposed to juvenile fish (final volume of each well: 2 ml). The 24-well plate containing the compound was wrapped in foil to block light, and then incubated in a 28° C. incubator for 22 hours. The plate was washed with egg water 3 times for 5 minutes to remove the compound from each well. For fat-specific staining, LipidGreen2 diluted at 5 μM was exposed to juvenile fish for 30 minutes, and then washed 3 times with egg water for 5 minutes. To evaluate the fatty liver of zebrafish juvenile fish, the developing embryo was anesthetized with Tricaine (4 g/L), and then photographed on 3% methyl cellulose. As the equipment for photographing the developing embryo, a LEICA MZ10F fluorescence microscope, a LEICA DFC425 camera, and Leica Application Suite software (v4.5) were used. For the fluorescence wavelength, a GFP Plants filter set (Excitation 470/40 nm, Emission 525/50 nm) was used. To quantify the liver area and the degree of fat staining of juvenile fish on the image, the area and the fluorescence intensity of the liver part of each image were quantified using ImageJ 1.50i software (National Institutes of Health, USA) and converted into heatmap images.

The test system of data set [2] is Raw 264.7 mouse macrophages. The data set is described as follows: Cell viability of LPS-treated Raw 264.7 macrophages. The data set is classed as cell-based. The method, then: (§1) Raw 264.7 mouse macrophages were aliquoted in a 96-well plate at the density of 1×10^5 cells/well and stabilized in a 37° C., 5% CO2 incubator for 24 hours. The Raw 264.7 cells were treated with the compound of Example 1 by concentration. After 1 hour, the cells were treated with 1 ug/ml of LPS and cultured for 24 hours. For the measurement of NO production, 40 mg/ml of Griess reagent was prepared and it was mixed with the culture supernatant at the same ratio. The mixture was reacted at room temperature for 15 minutes, and absorbance was measured at 540 nm. Based on the results obtained therefrom, the cell viability and NO production rate were expressed as percentages in terms of LPS.

The test system of data set [3] is NO production. The data set is described as follows: NO production in LPS-treated Raw 264.7 macrophages (Griess reagent). Format: cell-based, mouse. Conditions: 1 ug/ml LPS, 24 hours, Raw 264.7 cells; test concentration not given. The method, then:
In order to confirm the effect of the compound of Example 1 of the present invention on NO production in Raw 264.7 mouse macrophages in which inflammatory response was induced by LPS, an experiment was performed as follows.
as §1

The subject of data set [4] is artificial skin tissue. The data set is described as follows: Skin toxicity test on artificial skin (MTT). The following applies: 5% SDS control group. Format: cell-based. On the procedure: In order to evaluate the skin toxicity that may be induced upon skin contact of the compound of Example 1 of the present invention, the following experiment was performed using the artificial skin prepared with a structure similar to the skin of a living body.
Particularly, the experiment was performed according to OECD Guideline for the Testing of Chemicals No. 439, OECD (2010) and the method recommended by the manufacturer (Tegoscience).
First, the artificial skin cultured in agarose medium was transferred to a 12-well cell culture plate, to which culture medium was added, followed by culture in a humidified 37° C. 5% CO2 incubator for one day. The medium on the artificial skin culture surface was eliminated, and 90 μl of the compound of Example 1 of the present invention diluted with PBS was evenly applied to the skin surface, followed by incubation at room temperature for 15 minutes. The cell surface was washed twice with 10 ml of PBS, and a fresh culture medium was added, followed by incubation in a humidified 37° C. 5% CO2 incubator for 42 hours. In order to measure the viability of the skin, the artificial skin was transferred to a 12-well plate containing 2 ml of MTT solution (0.3 mg/ml), followed by culture for 3 hours. The stained artificial skin tissue was taken and transferred to a tube containing 500 μl of 0.04 N-isopropanol, and then incubated with shaking for 4 hours to decolorize. The solution was centrifuged at 13,000 rpm for 5 minutes, 100 μl of the supernatant was transferred to each well of a 96-well plate, and absorbance was measured at 570 nm.

The subject of data set [5] is melanogenesis. The following applies: Bioorganic & Medicinal Chemistry Letters 30 (2020) 127201; cited from earlier work.
Data set [6] relates to zebrafish. The data set is described as follows: Whitening effect: melanin synthesis / melanocyte formation in zebrafish. The data set is classed as in vivo. The following applies: 5 μM, treated 10 hours after fertilization, read at 32 hours after fertilization; PTU 200 μM as control. The text has this:
When observing the regeneration of melanin pigment, after inhibiting the formation of melanin pigment, it can be investigated by limiting it to the melanocyte generation pathway, and it is easy to observe the melanin synthesized in the initial stage of development. Therefore, zebrafish is more useful for the study of melanin pigment changes compared to other animal models (Logan D W, Burn S F, Jackson I J. (2006) Regulation of pigmentation in zebrafish melanophores. Pigment Cell Res. 2006 June; 19(3):206-13.).
Particularly, zebrafish fertilized eggs 10 hours after fertilization were placed in a 24-well plate (10 eggs/well), and 1 ml of egg water was added to each well of the plate. The compound of Example 1 was added to each well at the concentrations of 0.1 μM and 1 μM, so that the final volume of each well was 2 ml. Then, each 24-well plate was wrapped in foil to block light, and then incubated in a 28° C. incubator for 22 hours. At 32 hours after fertilization, in order to photograph the formation of black melanocytes, the chorion of the developing embryo was peeled off using a forcep (Fine Science Tools). After anesthetizing the developing embryo with Tricaine (4 g/L), the embryo was photographed on 3% methyl cellulose. As the equipment for photographing the developing embryo, a LEICA MZ10F fluorescence microscope, a LEICA DFC425 camera, and Leica Application Suite software (v4.5) were used. In all the experimental procedures, egg water sterilized after dissolving 60 mg/L of sea salt (Sigma-Aldrich, S9883) in tertiary distilled water was used as a solution for culturing the developing embryo. As a control group, a solvent control group (0.4% DMSO) and phenylthiourea (200 μM PTU), known as a tyrosinase inhibitor, were used (FIG. 6A).
In the same manner, experiments were performed with the compound of Comparative Example 1 at the concentrations of 0.5 μM, 1 μM, and 5 μM, and the results are shown in FIG. 6B.
On the other hand, in order to confirm the ability of the compound of the present invention to inhibit the melanin synthesis of the already generated melanocytes, the following experiment was performed with juvenile fish 60 hours after fertilization. Particularly, juvenile fish 60 hours after fertilization were placed in a 24-well plate (10/well), and 1 ml of egg water was added to each well of the plate. The compound of Example 1 was added to each well at the concentrations of 10 μM and 20 μM, so that the final volume of each well was 2 ml. Then, each 24-well plate was wrapped in foil to block light, and then incubated in a 28° C. incubator for 12 hours. In order to photograph the formation of black melanocytes, the developing embryo was anesthetized with Tricaine (4 g/L), and then the embryo was photographed on 3% methyl cellulose. […]

The subject of data set [7] is artificial corneal tissue. The data set is described as follows: Ocular toxicity test on artificial cornea (MTT). The data set is classed as cell-based. The following applies: 10% acetic acid control group. The method, then: In order to evaluate the ocular toxicity that may be induced upon ocular exposure of the compound of Example 1 of the present invention, the following experiment was performed using the cultured artificial cornea.
The artificial corneal tissue cultured in agarose medium was transferred to a 12-well cell culture plate, to which culture medium was added, followed by culture in a humidified 37° C. 5% CO2 incubator for one day. The medium on the artificial cornea culture surface was eliminated, and 30 μl of the compound of Example 1 of the present invention diluted with PBS was evenly applied to the cornea surface, followed by incubation at room temperature for 30 minutes. The cell surface was washed twice with 10 ml of PBS, and a fresh culture medium was added, followed by incubation in a humidified 37° C. 5% CO2 incubator for 30 minutes. In order to measure the viability of the cornea, the artificial cornea was transferred to a 12-well plate containing 2 ml of MTT solution (1 mg/ml), followed by culture for 3 hours. The stained artificial corneal tissue was taken and transferred to a tube containing 1.5 ml of isopropanol, and then incubated with shaking to decolorize. The solution was centrifuged at 13,000 rpm for 5 minutes, 100 μl of the supernatant was transferred to each well of a 96-well plate, and absorbance was measured at 570 nm.

[8] abbreviates: LPS-treated Raw 264.7 cells, 24 hours, test concentration not given.

Like-named read-outs stand apart in the source and are kept apart here.

Take `CC/C(=C(\c1ccccc1)c1ccc(OCCN(C)C)cc1)c1ccccc1` [tamoxifen, reference compound]: the liver area result in data set [1] is “maintained at the liver area level of normal juvenile fish”.
For “1-((4-Fluorophenyl)Thio) Isoquinoline [Comparative Example 1, reference compound]”, the “Cell viability (% of control)” value in data set [2] is 95 % of control. Besides, the “NO production (% of control)” value in data set [3] was 70 % of control.
Turning to `CCCCCCCCCCCCOS(=O)(=O)[O-].[Na+]` [SDS, reference compound], the “MTT color development of artificial skin” value in data set [4] is recorded as “significant decrease of the MTT color development”.
With `[O-][S+](c1ccc(F)cc1F)c1nccc2ccccc12` (centres unmarked) [Example 3, 1-((2,4-Difluorophenyl)Sulfinyl)Isoquinoline], in data set [2] (setting [8]), the “Cell viability (% of control)” value is given as 103 % of control. Besides, the “NO production (% of control)” value in data set [3] was 30 % of control.
For `[O-][S+](c1ccc(F)cc1)c1ccnc2ccccc12` (centres unmarked) [Example 2, 4-((4-Fluorophenyl)Sulfinyl)Quinoline], the “Cell viability (% of control)” value in data set [2] (setting [8]) is 100 % of control. In data set [3], the “NO production (% of control)” value was 26 % of control.
For `O=S(=O)(c1ccc(F)cc1)c1nccc2ccccc12` [Comparative Example 2, 1-((4-Fluorophenyl) Sulfonyl)Isoquinoline, reference compound] the same measures were 73 % of control and 65 % of control.
As to `Fc1ccc(Sc2nccc3ccccc23)cc1` [Comparative Example 1, 1-((4-Fluorophenyl)Thio) Isoquinoline, reference compound], in data set [5], the anti-melanogenic effect result was “anti-melanogenic effect”. Moreover, the synthesis of melanin entry in data set [6] was “level similar to that of the PTU-treated group”.
`[O-][S+](c1ccc(Cl)cc1)c1nccc2ccccc12` (centres unmarked) [Example 4, 1-((4-Chlorophenyl)Sulfinyl)Isoquinoline]: the “Cell viability (% of control)” value in data set [2] (setting [8]) is recorded as 96 % of control. In data set [3], the “NO production (% of control)” value is reported as 40 % of control.
As to `CC(=O)O` [acetic acid, reference compound], the “MTT color development of artificial cornea” value in data set [7] is on record as “significant decrease of the MTT color development”.
Take `[O-][S+](c1ccc(C(F)(F)F)cc1)c1nccc2ccccc12` (centres unmarked) [Example 5, 1-((4-(Trifluoromethyl)Phenyl)Sulfinyl) Isoquinoline]: in data set [2] (setting [8]), the “Cell viability (% of control)” value is 101 % of control. Also, the “NO production (% of control)” value in data set [3] is 25 % of control.
